Experimental data taken from patent US20120165403A1, “METHODS OF INHIBITING THE ACTIVITY OF HSP90 AND/OR ARYL HYDROCARBON RECEPTOR” (UNIVERSITY OF ROCHESTER, priority 2004, published 2012).

Test system: chicken hsp90
Assay: Affinity chromatography on EGCG-conjugated Sepharose, hsp90 point and truncation mutants
Format: binding
Excerpt: Murine AhR and ARNT cDNA (obtained from J. Whitlock and O. Hankinson, respectively) were inserted into pcDNA3 (Invitrogen, Carlsbad, Calif.). Chicken hsp90 constructs (FIG. 5), c90711hsp (wild-type), c90G94D (wild-type point mutant gly94→Asp (Grenert et al., J. Biol. Chem. 272:23843-23850 (1997), which is hereby incorporated by reference in its entirety), c90D92A (wild-type point mutant Asp92→Ala (Sullivan et al., J. Biol. Chem. 268:20373-20379 (1993), which is hereby incorporated by reference in its entirety), c90N221 (wild-type truncation mutant encoding a.a. 221-728 (Sullivan et al., J. Biol. Chem. 268:20373-20379 (1993), which is hereby incorporated by reference in its entirety)), c90N303 (a.a. 303-728) and c90N538 (a.a. 538-728) were kind gifts from Dr. D. Toft (Rochester, Minn.). The C-terminal truncation mutant c900507 (a.a. 1-221) was obtained from Dr. L. Neckers (Rockville, Md.) (Grenert et al., J. Biol. Chem. 272:23843-23850 (1997); Marcu et al., J. Biol. Chem. 275:37181-37186 (2000), which are hereby incorporated by reference in their entirety). Human p23 cDNA was excised from pQE80-p23 (obtained from W. Chan Stockton, Calif.) by sequential digests using the restriction enzymes Sad (3′-end) and BamHI (5′-end) and inserted into the similarly digested pET28a (Novagen, Madison, Wis.). The mouse histidine-tagged XAP2 construct, pET-AIP (Bell et al., J. Biol. Chem. 275:36407-36414 (2000), which is hereby incorporated by reference in its entirety), was a kind gift from Dr. D. Bell (Nottingham, UK). All constructs are in the T7 orientation with the exception of c900507, which is driven by an SP6 promoter.
AhR, ARNT, hsp90 (wild-type, point mutants, and truncation mutants), p23, and XAP2 were generated (separately) by coupled transcription/translation in rabbit reticulocyte lysate (RRL) using the TNT® system according to the manufacturer's protocol (Promega, Madison Wis.). In this system, ^35S-methionine was included in the transcription/translation mix to generate ^35S-labeled protein.
EGCG was conjugated to cyanogen bromide (CNBr)-activated Sepharose (Sigma). […]

O=C(O[C@@H]1Cc2c(O)cc(O)cc2O[C@@H]1c1cc(O)c(O)c(O)c1)c1cc(O)c(O)c(O)c1 [EGCG, epigallocatechin gallate]
binding of C-terminal hsp90 fragments (all C-terminal fragments (N221, N303, N538)): bound EGCG | binding of N-terminal point mutants D92A, G94D to EGCG-Sepharose (compared with wild type hsp90): bound to EGCG-Sepharose as well as or better than the wild type hsp90 | binding of amino-terminal hsp90 fragment C507 to immobilized EGCG (fragment containing the GA binding site): failed to bind to immobilized EGCG
